The supplement of paper PMC10307832

Legend:
Test in all cases: relative viability (nuclei count vs DMSO), 5 days (fraction); higher = more cells survive
[1] = compound: CN1CCN(CC1)C2=CC(=C(C=C2)NC3=NC(=C(S3)C(=O)C4=C(C=CC=C4Cl)Cl)N)OC [XMD14-99] + N=C(N)NC(=N)NCCc1ccccc1 [Phenformin] (partner 250 µM)
How it was run: (§1)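 A single step with final 0.05% Triton X-100, 1% formaldehyde and 1 ug/ml Hoechst fixed the cells and stained nuclei 5 days after treatment. Lung cancer cell lines in 1536-well plates had been treated by pin tool the day after seeding with one drug alone or a fixed anchor-drug dose plus five library-drug doses (not always all listed) in √10 steps, and nuclei were counted on 4× images. Relative viability is the ratio of nuclei in treated wells to nuclei in vehicle wells, taken as the median of duplicate plates.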

[2] = compound: N[C@@H]1CCCN(c2c(/C=C3\SC(=O)NC3=O)cccc2-c2ccccc2)C1 [AZD1208] + CC1(C)CCC(c2ccc(Cl)cc2)=C(CN2CCN(c3ccc(C(=O)NS(=O)(=O)c4ccc(N[C@H](CCN5CCOCC5)CSc5ccccc5)c(S(=O)(=O)C(F)(F)F)c4)cc3)CC2)C1 [Navitoclax] (partner 0.5 µM)
How it was run: as §1

[3] = compound: CN1CCN(CC1)C2=CC(=C(C=C2)NC3=NC(=C(S3)C(=O)C4=C(C=CC=C4Cl)Cl)N)OC [XMD14-99] + CC(=O)Nc1cccc(-n2c(=O)n(C3CC3)c(=O)c3c(Nc4ccc(I)cc4F)n(C)c(=O)c(C)c32)c1 [Trametinib] (partner 0.02 µM)
How it was run: as §1

[4] = compound: CN1CCN(CC1)C2=CC(=C(C=C2)NC3=NC(=C(S3)C(=O)C4=C(C=CC=C4Cl)Cl)N)OC [XMD14-99] + Nc1ncn([C@H]2C[C@H](O)[C@@H](CO)O2)c(=O)n1 [Decitabine] (partner 2 µM)
How it was run: as §1

Cell Line | relative viability ([1]; first compound 0.08 µM) | relative viability ([1]; first compound 0.8 µM) | relative viability ([1]; first compound 2.53 µM) | relative viability ([1]; first compound 8 µM) | relative viability ([2]; first compound 0.08 µM) | relative viability ([2]; first compound 0.253 µM) | relative viability ([2]; first compound 0.8 µM) | relative viability ([2]; first compound 2.53 µM) | relative viability ([2]; first compound 8 µM) | relative viability ([3]; first compound 0.08 µM) | relative viability ([3]; first compound 0.8 µM) | relative viability ([3]; first compound 2.53 µM) | relative viability ([3]; first compound 8 µM) | relative viability ([4]; first compound 0.08 µM) | relative viability ([4]; first compound 0.8 µM) | relative viability ([4]; first compound 2.53 µM) | relative viability ([4]; first compound 8 µM)
NCI-H1650 | 0.375 | 0.498 | 0.361 | 0.312 | 1.07 | 1.15 | 1.04 | 1.02 | 1.19 | 0.642 | 0.738 | 0.542 | 0.503 | 0.393 | 0.418 | 0.41 | 0.338
BEN | 0.26 | 0.292 | 0.248 | 0.257 | 0.0677 | 0.0668 | 0.0589 | 0.0576 | 0.125 | 0.971 | 1.15 | 1 | 0.879 | 0.853 | 0.701 | 0.707 | 0.558
EMC-BAC-2 | 0.51 | 0.515 | 0.445 | 0.384 | 1.17 | 1.39 | 1.14 | 1.17 | 1.07 | 0.832 | 0.716 | 0.744 | 0.668 | 0.973 | 0.898 | 0.838 | 0.802
LU99A | 0.888 | 0.917 | 0.728 | 0.603 | 0.805 | 0.855 | 0.864 | 0.712 | 0.514 | 0.559 | 0.61 | 0.512 | 0.394 | 0.852 | 0.918 | 0.784 | 0.669
ABC-1 | 0.237 | 0.203 | 0.227 | 0.232 |  |  |  |  |  |  |  |  |  | 1.1 | 1.05 | 0.679 | 0.935
NCI-H2170 | 0.393 | 0.388 | 0.342 | 0.3 | 0.505 | 0.664 | 0.418 | 0.521 | 0.251 | 0.924 | 0.873 | 0.828 | 0.786 | 0.49 | 0.423 | 0.444 | 0.395
NCI-H1299 |  |  |  |  | 1.1 | 1.09 | 1.08 | 1 | 1.04 |  |  |  |  |  |  |  | 
EBC-1 |  |  |  |  | 0.317 | 0.326 | 0.297 | 0.334 | 0.298 |  |  |  |  |  |  |  | 
NCI-H2405 | 0.379 | 0.39 | 0.373 | 0.231 | 0.78 | 0.792 | 0.84 | 0.791 | 0.789 | 0.641 | 0.751 | 0.626 | 0.575 | 0.704 | 0.749 | 0.628 | 0.648
